In PubChem BioAssay AID1963966 (Molecular Pharmacology Branch, DTP, NCI, 2024):
Several values for one entry are separate records, joined by “and”; a condition that tells them apart may be missing. Identical values can stand only once.

Tested on: 935938-334-R-J1-PDC spheroids with HUVEC/MSC, viability
Assay: Anticancer human tumor 935938-334-R-J1-PDC patient-derived small intestine adenocarcinoma cell line growth inhibition [PI3K]
Settings: for viability, T/C: stronger effect = lower value
From the text: Combinatorial screen of targeted agents with the PI3K inhibitors inavolisib, alpelisib, duvelisib, and copanlisib in multi-cell type tumor spheroids
A high-throughput screen of multi-cell type tumor spheroids was designed to identify active combinations of targeted small molecules and PI3K pathway inhibitors. Complex spheroids include a stromal component modeled by human endothelial cells (HUVEC) and fibroblasts modeled by human mesenchymal stem cells (MSCs). The concentration ranges selected for each drug and investigational agent were based upon clinically achievable concentrations if the clinical Cmax of the agent was known.
Compounds. The drugs and investigational agents: inavolisib (NSC800729), alpelisib (NSC765974), duvelisib (NSC772469), copanlisib (NSC816437), ipatasertib (NSC767898), afuresertib (NSC778305), talazoparib (NSC767125), sapanisertib (NSC764658), selumetinib (NSC741078), tovorafenib (DAY101, NSC766906), vemurafenib (NSC761431), ravoxertinib (NSC781343), sotorasib (NSC818433), MRTX1133 (NSC 836407), abemaciclib (NSC 768073), palbociclib (NSC758247), venetoclax (NSC 766270), SY5609 (NSC837396), enzalutamide (NSC755605), and darolutamide (NSC825331), were obtained from the National Cancer Institute (NCI) Developmental Therapeutics Program Chemical Repository. The FDA-approved anticancer drug set is available from the NCI Developmental Therapeutics Program. […] The stock solutions were prepared in dimethyl sulfoxide (DMSO, Sigma-Aldrich, St. Louis, MO, cat. D2650) at 800-fold the tested concentration and stored at -70 degrees C prior to their use. All drugs and investigational agents were tested over a range starting from a high concentration at or near the clinical Cmax and decreasing in half-log increments. If the clinical Cmax for an agent had not been determined, the highest concentration tested was 10 microM.
Cell Culture. All cells were maintained in an incubator at 37 degrees C and 5% CO2 with 95% humidity. The PDC lines were cultured according to standard operating procedures established by the NCI PDMR (https://pdmr.cancer.gov/sops/default.htm). All PDCs were thawed and cultured in Matrigel-coated flasks prepared with a working solution of 1X Ham's F-12 nutrient mix, without supplementation (Invitrogen, Waltham, MA, cat. 11765054), 100 U/mL penicillin-streptomycin (Invitrogen, cat. 15140122), and 2.5% Matrigel (Corning Inc., Corning, NY, cat. 354248) for the first three passages. The 354836-022-R-J1-PDC, 475296-252-R-J1-PDC, and 997726-040-R-J2-PDC lines were cultured in 6A media, which includes advanced DMEM/F-12 (Thermo Fisher Scientific, cat. 12634028), 10 mM HEPES (Thermo Fisher Scientific, cat. 15630080), 1X GlutaMAX supplement (Thermo Fisher Scientific, cat. 35050061), 0.1 mg/mL primocin (InvivoGen, San Diego, CA, cat. ant-pm-2), 10% defined fetal bovine serum, heat inactivated (HyClone Laboratories Inc., Logan, UT, cat. SH30070.03HI), 50% L-WRN conditioned media (ATCC, cat. CRL-3276), 1.25 mM N-Acetyl-L-cysteine (Sigma-Aldrich, cat. A9165), 10 mM nicotinamide (Sigma-Aldrich, cat. N0636), 1X B-27 supplement (Thermo Fisher Scientific, cat. 17504044), 1X N-2 supplement (Thermo Fisher Scientific, cat. 17502048), and 10 microM Y-27632 dihydrochloride (Tocris Bioscience, Bristol, United Kingdom, cat. 1254). The 624824-186-R-J2-PDC line was cultured in 6C/Colon 1B media, which includes all 6A media components plus 50 ng/mL human EGF recombinant protein (Thermo Fisher Scientific, cat. PHG0311). […]
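Also: compound exposure lasted seven days before viability was read.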
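For viability, T/C in this document: percent of vehicle DMSO treated spheroid viability so 100% = untreated.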

C#Cc1c(F)ccc2cc(O)cc(-c3ncc4c(N5CC6CCC(C5)N6)nc(OCC56CCCN5CC(F)C6)nc4c3F)c12 (stereo not drawn)
viability, T/C (compound 3.16 µM): 52.5% [middle of 4 runs]
viability, T/C (compound 10 µM): 43.6% [middle of 4 runs]
IC50 (curve of compound): 4.79 µM [middle of 4 runs]

C=CC(=O)N1CCN(c2nc(=O)n(-c3c(C)ccnc3C(C)C)c3nc(-c4c(O)cccc4F)c(F)cc23)C(C)C1 (stereo not drawn)
viability, T/C (compound 0.1 µM): 95.8% [middle of 4 runs]
viability, T/C (compound 1 µM): 111% [middle of 4 runs]
viability, T/C (compound 10 µM): 92.7% [middle of 4 runs]
IC50 (curve of compound): > 10000 nM

CC(C)NCC(C(=O)N1CCN(c2ncnc3c2C(C)CC3O)CC1)c1ccc(Cl)cc1 (stereo not drawn)
viability, T/C (compound 0.1 µM): 85.6% [middle of 4 runs]
viability, T/C (compound 0.316 µM): 86.1% [middle of 4 runs]
viability, T/C (compound 1 µM): 74.3% [middle of 4 runs]
IC50 (curve of compound): > 10000 nM and 1870 nM and 5860 nM

CC1(C)CCC(Nc2ncc(C(F)(F)F)c(-c3c[nH]c4c(P(C)(C)=O)c(C#N)ccc34)n2)CN1 (stereo not drawn)
viability, T/C (compound 0.0316 µM): 43.3% [middle of 4 runs]
viability, T/C (compound 0.1 µM): 39.1% [middle of 4 runs]
viability, T/C (compound 0.316 µM): 34.6% [middle of 4 runs]
viability, T/C (compound 1 µM): 38.5% and 38.1% and 35.8% (2×)
viability, T/C (compound 3.16 µM): 35.1% [middle of 4 runs]
viability, T/C (compound 10 µM): 7.76% [middle of 4 runs]
IC50 (curve of compound): < 31.6 nM

Cc1nc(NC(=O)N2CCCC2C(N)=O)sc1-c1ccnc(C(C)(C)C(F)(F)F)c1 (stereo not drawn)
viability, T/C (compound 1 µM): 72.2% [middle of 8 runs]
viability, T/C (compound 10 µM): 48.2% [middle of 8 runs]

Cn1ncc(Cl)c1-c1cc(C(=O)NC(CN)Cc2cccc(F)c2)sc1Cl (stereo not drawn)
viability, T/C (compound 0.1 µM): 84.4% [middle of 4 runs]
viability, T/C (compound 0.316 µM): 71.1% [middle of 4 runs]
viability, T/C (compound 1 µM): 60.5% [middle of 4 runs]
viability, T/C (compound 3.16 µM): 49.1% [middle of 4 runs]
IC50 (curve of compound): > 10000 nM and 1850 nM

Cn1nccc1Nc1nccc(-c2ccn(C(CO)c3ccc(Cl)c(F)c3)c(=O)c2)n1 (stereo not drawn)
viability, T/C (compound 0.0316 µM): 101% [middle of 4 runs]
viability, T/C (compound 0.316 µM): 68.3% [middle of 4 runs]
viability, T/C (compound 1 µM): 52.5% [middle of 4 runs]
viability, T/C (compound 3.16 µM): 43.4% [middle of 4 runs]
viability, T/C (compound 10 µM): 37% [middle of 4 runs]
IC50 (curve of compound): 1.06 µM [middle of 4 runs]

Cn1cnc2c(F)c(Nc3ccc(Br)cc3Cl)c(C(=O)NOCCO)cc21 + CC(Nc1ccc2c(c1)OCCn1cc(N3C(=O)OCC3C(F)F)nc1-2)C(N)=O
IC50 (curve of first compound, second compound 0.00316 µM): 49.6 nM
IC50 (curve of first compound, second compound 0.01 µM): 29.9 nM
IC50 (curve of first compound, second compound 0.0316 µM): 65.4 nM
IC50 (curve of first compound, second compound 0.1 µM): 27.4 nM
IC50 (curve of first compound, second compound 0.316 µM): 18.3 nM
IC50 (curve of first compound, second compound 1 µM): < 9.49 nM
viability, T/C (second compound 0.00316 µM, first compound 0.00949 µM): 86.3%
viability, T/C (second compound 0.00316 µM, first compound 0.03 µM): 57.2%
viability, T/C (second compound 0.00316 µM, first compound 0.0949 µM): 39.2%
viability, T/C (second compound 0.00316 µM, first compound 0.3 µM): 30.1%
viability, T/C (second compound 0.00316 µM, first compound 0.949 µM): 20.9%
viability, T/C (second compound 0.00316 µM, first compound 3 µM): 16.8%
viability, T/C (second compound 0.01 µM, first compound 0.00949 µM): 71.2%
viability, T/C (second compound 0.01 µM, first compound 0.03 µM): 50.9%
viability, T/C (second compound 0.01 µM, first compound 0.0949 µM): 33.8%
viability, T/C (second compound 0.01 µM, first compound 0.3 µM): 26.5%
viability, T/C (second compound 0.01 µM, first compound 0.949 µM): 26.5%
viability, T/C (second compound 0.01 µM, first compound 3 µM): 17.9%
viability, T/C (second compound 0.0316 µM, first compound 0.00949 µM): 79.1%
viability, T/C (second compound 0.0316 µM, first compound 0.03 µM): 65.3%
viability, T/C (second compound 0.0316 µM, first compound 0.0949 µM): 38.8%
viability, T/C (second compound 0.0316 µM, first compound 0.3 µM): 34.3%
viability, T/C (second compound 0.0316 µM, first compound 0.949 µM): 23.8%
viability, T/C (second compound 0.0316 µM, first compound 3 µM): 15.8%
viability, T/C (second compound 0.1 µM, first compound 0.00949 µM): 58%
viability, T/C (second compound 0.1 µM, first compound 0.03 µM): 46.4%
viability, T/C (second compound 0.1 µM, first compound 0.0949 µM): 39.7%
viability, T/C (second compound 0.1 µM, first compound 0.3 µM): 23.1%
viability, T/C (second compound 0.1 µM, first compound 0.949 µM): 16.8%
viability, T/C (second compound 0.1 µM, first compound 3 µM): 18.3%
viability, T/C (second compound 0.316 µM, first compound 0.00949 µM): 56.4%
viability, T/C (second compound 0.316 µM, first compound 0.03 µM): 45.3%
viability, T/C (second compound 0.316 µM, first compound 0.0949 µM): 22.7%
viability, T/C (second compound 0.316 µM, first compound 0.3 µM): 19%
viability, T/C (second compound 0.316 µM, first compound 0.949 µM): 16.8%
viability, T/C (second compound 0.316 µM, first compound 3 µM): 12.7%
viability, T/C (second compound 1 µM, first compound 0.00949 µM): 44.3%
viability, T/C (second compound 1 µM, first compound 0.03 µM): 31.3%
viability, T/C (second compound 1 µM, first compound 0.0949 µM): 20.7%
viability, T/C (second compound 1 µM, first compound 0.3 µM): 17.4%
viability, T/C (second compound 1 µM, first compound 0.949 µM): 17.4%
viability, T/C (second compound 1 µM, first compound 3 µM): 12%
